Drawing on patent US9072800B2, “Hand sanitizer” (TRISTEL PLC, priority 2009, dated 2015), this text covers flash point for one compound.

The data set is described as follows: Flash point by Tag Closed Cup. The class given is physicochemical. An excerpt:
MMB also has the benefit over ethanol that it is substantially non-flammable. […] MMB is considered to be extremely safe, having no R and S phrases and Occupational Exposure Limit.

With `COC(C)(C)CCO` [MMB, 3-methoxy-3-methylbutan-1-ol], the flash point turned out to be 68 °C.
